In patent publication US9523109B2, “Method for enzymatically preparing peptides for use in improvement of brain function” (CALPIS CO., LTD., priority 2011, dated 2016):
Where no end group is shown, it is not given here.

Key:
[1] = test system: scopolamine-induced amnesia; experiment: Y-shaped maze test (spontaneous alternation behavior) after scopolamine-induced brain dysfunction; assay type: in vivo, Male ddY mice; conditions: scopolamine 1 mg/kg s.c.
Protocol: Male ddY mice (about 7 weeks old) were used (n=15 to 75), and provided with food and water ad libitum. Asn-Ile-Pro-Pro-Leu-Thr-Gln-Thr-Pro-Val-Val-Val-Pro-Pro-Phe-Leu-Gln-Pro-Glu (SEQ ID NO: 1) was used as a test substance in amounts of 0.05 nmol/kg body weight (0.1 μg/kg body weight), 0.5 nmol/kg body weight (1 μg/kg body weight), 1.5 nmol/kg body weight (3 μg/kg body weight), 5 nmol/kg body weight (10 μg/kg body weight), 50 nmol/kg body weight (100 μg/kg body weight), and 500 nmol/kg body weight (1,000 μg/kg body weight). The test substance was administered as a single dose orally to mice 60 minutes before performing a Y-shaped maze test for evaluating spontaneous alternation behavior. Thirty minutes before performing the Y-shaped maze test, scopolamine was subcutaneously administered in an amount of 1 mg/kg body weight into the back to induce brain dysfunction (memory disorder and/or cognition disorder) in mice. In the Y-shaped maze test, as an experiment device, a Y-shaped maze was used in which the length for each arm was 40 cm; the wall height was 12 cm; the floor width was 3 cm; the upper part width was 10 cm; and three arms were connected to each other at an angle of 120°. Each mouse was placed in the end of any of the alms of the Y-shaped maze and allowed to explore freely in the maze over 8 minutes, and the sequence of the arms to which the mouse moved was recorded. The number of movements of the mouse to the arms within the measurement time was counted and used as the total number of entries; in the sequence, the combination in which three different arms were selected in succession (for example, with the three arms respectively called A, B, and C, if the sequence of the arms entered is ABCBACACB, the count is 4 inclusive of overlapping) was investigated, and the count number was used as the number of spontaneous alternation behaviors. The change in spontaneous alternation behavior (%) was calculated by dividing the number of spontaneous alternation behaviors by a number obtained by subtracting 2 from the total number of entries, and multiplying the resultant number by 100, and the percentage was used as an indicator of the spontaneous alternation behavior. […] The measured values were expressed as mean±standard error for each group. The significance of difference between the control group and the scopolamine control group was tested by Student's t-test. […]
Male ddY mice (about 7 weeks old) were used (n=15 to 45), and provided with food and water ad libitum. […] Each mouse was placed in the end of any of the arms of the Y-shaped maze and allowed to explore freely in the maze over 8 minutes, and the sequence of the arms to which the mouse moved was recorded. […]

[2] = test system: memory retention; experiment: novel object recognition test for evaluating memory retention; assay type: in vivo, Male ddY mice; conditions: Example 6, FIG. 7; single oral dose 500 nmol/kg body weight (1,000 μg/kg) 60 min before training trial; retention trial 48 hours later
Protocol: Male ddY mice (about 7 weeks old) were used (n=14 to 15), and provided with food and water ad libitum. As a test substance, 500 nmol/kg body weight (1,000 μg/kg body weight) of Asn-Ile-Pro-Pro-Leu-Thr-Gln-Thr-Pro-Val-Val-Val-Pro-Pro-Phe-Leu-Gln-Pro-Glu (SEQ ID NO: 1) was used. The test substance was administered as a single dose orally to mice 60 minutes before performing a novel object recognition test for evaluating memory retention. In the novel object recognition test, a 30×30×30 cm box was used as an experiment device. As a conditioning operation, a mouse was placed in an experiment device in which a floorcloth was laid for 5 minutes, and allowed to explore freely in the device. A training trial was performed the day following the conditioning operation. […] Sixty minutes after orally administering the test substance or water, a mouse was placed in the experiment device for 5 minutes, and the time (second) was measured during which the mouse explored by approaching each object to be within 1 cm therefrom. […] (However, the state in which a mouse rides on an object is excluded.) The percentages of the times were determined during which two objects were explored in each of the training trial and the retention trial. The percentage (%) of the exploration time for each object was expressed as mean±standard error for each of the groups. […]

[3] = Example 5, FIG. 6, single oral dose 50 nmol/kg body weight 60 min before test

| Sequence | amnesia-preventing action (change in spontaneous alternation behavior) ([1]; Example 4, FIG. 5, single oral dose 60 min before test, range 0.05 nmol/kg body weight to 500 nmol/kg body weight (0.1 to 1,000 μg/kg)) | amnesia-preventing action (change in spontaneous alternation behavior) [1, 3] | memory-enhancing action (percentage of exploration time for novel object) [2] | amnesia-preventing action (change in spontaneous alternation behavior) ([1]; Example 7, FIG. 8, single oral dose 150 nmol/kg body weight to 500 nmol/kg body weight (380 to 1,280 μg/kg)) |
| --- | --- | --- | --- | --- |
| NIPPLTQTPVVVPPFLQPE [SEQ ID NO: 1] | amnesia-preventing action | amnesia-preventing action | memory-enhancing action | – |
| NIPPLTQTPVVVPPFLQPEVM [SEQ ID NO: 2] | – | amnesia-preventing action | – | – |
| SWMHQPHQPLPPTVMFPPQSVL [SEQ ID NO: 3] | – | – | – | amnesia-preventing action |
